Measured values from article PMC8463443 (Acta Pharmaceutica Sinica. B, 2021).
Where no end group is shown, it is not given here.

What was measured:
[1] = system: monkey kidney cell line Vero E6; test: Cell viability, Vero E6; format: cell-based; details: monkey kidney cell line Vero E6 (Fig. S6)
[2] = Water solubility of peptide; format: physicochemical; details: in words, method not given

Question: With KLTFLEYWAQLMQK [M3-2K] as the sequence, how does the “effect on viability of Vero E6” value [1] read?
Answer: neither PMI-2K nor M3-2K had any effect on the viability

Question: And the water solubility [2]?
Answer: improved peptide solubility
